# Legend:
# Mus musculus [1] = assay: Acquisition time in (R)-PIA) induced avoidance test (performed in mice) for antagonistic activity after p.o. administration of 0.31 mg/kg; format: functional; settings: route oral
# Mus musculus [2] = assay: Acquisition time in (R)-PIA) induced avoidance test (performed in mice) for antagonistic activity after p.o. administration of 1.25 mg/kg; format: functional; settings: route oral
# Mus musculus [3] = assay: Acquisition time in (R)-PIA) induced avoidance test (performed in mice) for antagonistic activity after peroral administration of 20 mg/kg; format: functional; settings: route oral
# Mus musculus [4] = assay: Retention time in (R)-PIA) induced avoidance test (performed in mice) for antagonistic activity after p.o. administration of 1.25 mg/kg; format: functional, organism-based; set-up: dose 1.25 mg/kg
# Mus musculus [5] = assay: Retention time in (R)-PIA) induced avoidance test (performed in mice) for antagonistic activity after peroral administration of 20 mg/kg; format: functional, organism-based; set-up: dose 20 mg/kg
# Mus musculus [6] = assay: Retention time in (R)-PIA) induced avoidance test (performed in mice) for antagonistic activity after peroral administration of 5 mg/kg; format: functional, organism-based; set-up: dose 5 mg/kg
# Mus musculus [7] = assay: Retention time in (R)-PIA) induced avoidance test (performed in mice) for antagonistic activity after peroral administration of 0.31 mg/kg; format: functional, organism-based; set-up: dose 0.31 mg/kg
# Rattus norvegicus [8] = assay: Acquisition time in Scopolamine induced avoidance test (performed in rat) for antagonistic activity after peroral administration of 1.25 mg/kg; format: functional; settings: route oral
# Rattus norvegicus [9] = assay: Acquisition time in Scopolamine induced avoidance test (performed in rat) for antagonistic activity after peroral administration of 20 mg/kg; format: functional; settings: route oral
# Rattus norvegicus [10] = assay: Acquisition time in Scopolamine induced avoidance test (performed in rat) for antagonistic activity after p.o. administration of 0.08 mg/kg; format: functional; settings: route oral
# Rattus norvegicus [11] = assay: Acquisition time in Scopolamine induced avoidance test (performed in rat) for antagonistic activity after p.o. administration of 0.31 mg/kg; format: functional; settings: route oral
# Rattus norvegicus [12] = assay: Acquisition time in Scopolamine induced avoidance test (performed in rat) for antagonistic activity after p.o. administration of 5 mg/kg; format: functional; settings: route oral
# Rattus norvegicus [13] = assay: Retention time in Scopolamine induced avoidance test (performed in […]) for antagonistic activity after peroral administration of 5 mg/kg; format: functional, organism-based; set-up: dose 5 mg/kg
# Rattus norvegicus [14] = assay: Retention time in Scopolamine induced avoidance test (performed in rat) for antagonistic activity after p.o. administration of 0.08 mg/kg; format: functional, organism-based; set-up: dose 0.08 mg/kg
# Rattus norvegicus [15] = assay: Retention time in Scopolamine induced avoidance test (performed in rat) for antagonistic activity after p.o. administration of 0.31 mg/kg; format: functional, organism-based; set-up: dose 0.31 mg/kg
# Rattus norvegicus [16] = assay: Retention time in Scopolamine induced avoidance test (performed in rat) for antagonistic activity after peroral administration of 1.25 mg/kg; format: functional, organism-based; set-up: dose 1.25 mg/kg
# Rattus norvegicus [17] = assay: Retention time in Scopolamine induced avoidance test (performed in rat) for antagonistic activity after peroral administration of 20 mg/kg; format: functional, organism-based; set-up: dose 20 mg/kg
# Mus musculus [18] = assay: Acquisition time in (R)-PIA) induced avoidance test (performed in mice) for antagonistic activity after peroral administration of 5 mg/kg; format: functional; settings: route oral
# Adenosine A2 receptor = Adenosine A2 receptor (Rattus norvegicus, UniProt P29276+P30543); assay: Binding affinity at Adenosine A2 receptor from rat striatal membranes by N-[3H] ethyladenosin-5'- uronamide displacement.
# Mus musculus [19] = assay: Retention time in (R)-PIA) induced avoidance test (performed in mice) for antagonistic activity after peroral administration of 0.02 mg/kg
# Mus musculus [20] = assay: Acquisition time in (R)-PIA) induced avoidance test (performed in mice) for antagonistic activity after peroral administration of 0.02 mg/kg; settings: route oral
# Mus musculus [21] = assay: Acquisition time in (R)-PIA) induced avoidance test (performed in mice) for antagonistic activity after peroral administration of 0.08 mg/kg; format: functional; settings: route oral
# Mus musculus [22] = assay: Acquisition time in (R)-PIA) induced avoidance test (performed in mice) for antagonistic activity after peroral administration of 1.25 mg/kg; format: functional; settings: route oral
# Mus musculus [23] = assay: Tested for locomotor activity after oral administration of 10 mg/kg for 120 min; format: functional
# Mus musculus [24] = assay: Tested for locomotor activity after oral administration of […] for 120 min; format: functional
# Mus musculus [25] = assay: Tested for locomotor activity after oral administration of 5 mg/kg for 120 min; format: functional
# Rattus norvegicus [26] = assay: Acquisition time in Scopolamine induced avoidance test (performed in rat) for antagonistic activity after peroral administration of 5 mg/kg; format: functional; settings: route oral
# Rattus norvegicus [27] = assay: Acquisition time in Scopolamine induced avoidance test (performed in rat) for antagonistic activity after peroral administration of 0.08 mg/kg; format: functional; settings: route oral
# Adenosine receptor A1 [28] = biological target: T1, Adenosine receptor A1 (Cavia porcellus, UniProt P47745); assay: Binding affinity against Adenosine A1 receptor from guinea pig forebrain membranes by N6-[3H]- cyclohexyladenosine displacement.
# T1 sequence (P47745 whole entry): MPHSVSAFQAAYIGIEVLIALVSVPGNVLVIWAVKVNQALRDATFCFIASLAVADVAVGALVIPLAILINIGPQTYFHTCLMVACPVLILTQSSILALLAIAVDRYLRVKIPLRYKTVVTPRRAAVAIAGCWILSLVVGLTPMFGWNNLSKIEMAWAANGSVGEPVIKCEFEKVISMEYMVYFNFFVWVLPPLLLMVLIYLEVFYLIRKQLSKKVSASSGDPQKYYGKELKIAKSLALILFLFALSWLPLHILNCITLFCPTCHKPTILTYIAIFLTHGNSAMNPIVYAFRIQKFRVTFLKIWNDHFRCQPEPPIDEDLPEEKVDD
# Adenosine receptor A1 [29] = biological target: T2, Adenosine receptor A1 (Rattus norvegicus, UniProt P25099); assay: Tested for binding affinity against Adenosine A1 receptor from rat forebrain membranes, using N6-[3H]- cyclohexyladenosine as radioligand
# T2 sequence (P25099 whole entry): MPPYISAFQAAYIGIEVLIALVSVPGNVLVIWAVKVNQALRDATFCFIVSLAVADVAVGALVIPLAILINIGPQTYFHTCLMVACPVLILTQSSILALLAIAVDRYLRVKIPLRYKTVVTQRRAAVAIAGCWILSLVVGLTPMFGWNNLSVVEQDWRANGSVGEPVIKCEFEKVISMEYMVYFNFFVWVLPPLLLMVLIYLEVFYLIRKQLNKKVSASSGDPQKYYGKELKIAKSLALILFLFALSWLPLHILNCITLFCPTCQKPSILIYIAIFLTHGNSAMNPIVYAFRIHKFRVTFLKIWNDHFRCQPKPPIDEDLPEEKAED
# Mus musculus [30] = assay: Retention time in (R)-PIA) induced avoidance test (performed in mice) for antagonistic activity after peroral administration of 0.08 mg/kg; format: functional, organism-based; set-up: dose 0.08 mg/kg
Compound,Acquisition time (Mus musculus [1]),Acquisition time (Mus musculus [2]),Retention time (Mus musculus [4]),Retention time (Mus musculus [6]),Retention time (Mus musculus [7]),Acquisition time (Rattus norvegicus [8]),Acquisition time (Rattus norvegicus [9]),Acquisition time (Rattus norvegicus [10]),Acquisition time (Rattus norvegicus [11]),Acquisition time (Rattus norvegicus [12]),Retention time (Rattus norvegicus [13]),Retention time (Rattus norvegicus [14]),Retention time (Rattus norvegicus [15]),Retention time (Rattus norvegicus [16]),Retention time (Rattus norvegicus [17]),Acquisition time (Mus musculus [18]),Retention time (Mus musculus [19]),Acquisition time (Mus musculus [20]),Acquisition time (Mus musculus [21]),Ki (Adenosine receptor A1 [29]),also measured
COc1cc(/C=C/c2nc3c(c(=O)n(C)c(=O)n3C)n2C)cc(OC)c1OC,22.1 s,24.7 s,23 s,49.9 s,63.8 s,26.6 s,13.2 s,9.9 s,21.3 s,11.3 s,31.4 s,28.9 s,36.3 s,33.7 s,26.8 s,33.8 s,,,,,Acquisition time (Mus musculus [3]): 21 s; Retention time (Mus musculus [5]): 74.9 s
CCCn1c(=O)c2nc(C34CC5CC(CC3C5)C4)[nH]c2n(CCc2ccc(N)cc2)c1=O,14.8 s,20.3 s,168 s,92.5 s,60.3 s,15.3 s,18.3 s,12 s,8.3 s,11.9 s,182 s,20.5 s,95.9 s,136 s,232 s,14.7 s,36 s,18.1 s,,,Ki (Adenosine A2 receptor): > 100000 nM; Acquisition time (Mus musculus [3]): 14.7 s; Retention time (Mus musculus [5]): 98.7 s
Cn1c(=O)c2nc[nH]c2n(C)c1=O.O [THEOPHYLLINE],35.8 s,,,,,11.1 s,10.6 s,,12.2 s,,,,,,,20.3 s,,,30.8 s,,Acquisition time (Mus musculus [22]): 16.2 s; Locomotor activity (Mus musculus [23]): 11031 Counts; Locomotor activity (Mus musculus [24]): 5914 Counts; Locomotor activity (Mus musculus [25]): 7682 Counts; Acquisition time (Rattus norvegicus [26]): 10.8 s; Acquisition time (Rattus norvegicus [27]): 10.6 s
CCCn1c(=O)c2[nH]c(C(C3CC3)C3CC3)nc2n(CCC)c1=S,,,,,,,,,,,,,,,,,,,,,Ki (Adenosine receptor A1 [28]): 6.1 nM
CCCn1c(=O)c2[nH]c(C34CC5CC(CC(C5)C3)C4)nc2n(CCC)c1=O,,,,,,,,,,,,,,,,,,,,1.5 nM,
CCCn1c(=O)c2nc(C34CC5CC(CC(C5)C3)C4)[nH]c2n(CCC)c1=O,19.6 s,19.8 s,490 s,221 s,302 s,12.8 s,8.4 s,11 s,16.6 s,11.7 s,16.3 s,34.8 s,21.3 s,14.1 s,35 s,13.7 s,17.6 s,10.1 s,19.1 s,,Retention time (Mus musculus [30]): 122 s
CCCn1c(=O)c2nc(C3CC4CCCC4C3)[nH]c2n(CCC)c1=O (stereo unspecified),23.3 s,14.5 s,317 s,384 s,140 s,9.5 s,9.9 s,10.8 s,11.1 s,11.1 s,22.6 s,30.7 s,29.6 s,18 s,35.1 s,42.7 s,18.5 s,13.4 s,24 s,0.75 nM,Retention time (Mus musculus [30]): 83.2 s
CCCN1C(=O)N2C[C@@H](CC)N=C2c2[nH]c(C34CC5CC(CC3C5)C4)nc21,15.9 s,16.5 s,326 s,186 s,192 s,20.1 s,17.2 s,17.3 s,14.1 s,14.4 s,42.1 s,27.1 s,74.1 s,80.9 s,76.6 s,23.7 s,16.1 s,13.6 s,35.1 s,0.56 nM,Retention time (Mus musculus [30]): 156 s
CCCn1c(=O)c2[nH]c(C3CCC(=O)C3)nc2n(CCc2ccc(N)cc2)c1=O (stereo unspecified),,,,,,,,,,,,,,,,,,,,,Ki (Adenosine receptor A1 [28]): 23 nM
